From ChEMBL document CHEMBL1201862, “PubChem BioAssay data set” (2004)
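Grown in 96-well plates, cells were treated for 48 hours with each compound at five concentrations. Insufficient inhibition: endpoint recorded as highest concentration tested. Abbreviation: GI50, concentration required for 50% inhibition of growth.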 Calls of active or inactive are those of the source. No stated cut-off is given here; in the data, active = GI50 up to about 1.1 µM and inactive = higher.

Tests used:
Assay in all cases: growth of human tumour cells (NCI), 48 h
OVCAR-3 = test system: OVCAR-3
COLO 205 = test system: COLO 205
HCC 2998 = test system: HCC 2998
SNB-19 = test system: SNB-19
OVCAR-4 = test system: OVCAR-4
ACHN = test system: ACHN
NCI-H23 = test system: NCI-H23
SF-295 = test system: SF-295
HOP-18 = test system: HOP-18
SF-539 = test system: SF-539
Malme-3M = test system: Malme-3M
SK-MEL-28 = test system: SK-MEL-28
HL-60 = test system: HL-60
NCI-H522 = test system: NCI-H522
EKVX = test system: EKVX
SF-268 = test system: SF-268
HCT-116 = test system: HCT-116

Measured: GI50

CN(CC(=O)O)S(=O)(=O)c1ccc(F)cc1
inactive: OVCAR-3 > 100 µM | COLO 205 > 100 µM | HCC 2998 > 100 µM | SNB-19 > 100 µM | OVCAR-4 > 100 µM | ACHN > 100 µM | NCI-H23 > 100 µM | SF-295 > 100 µM | HOP-18 > 100 µM | SF-539 > 100 µM | Malme-3M > 100 µM | SK-MEL-28 > 100 µM | HL-60 > 100 µM | NCI-H522 > 100 µM | EKVX > 100 µM | SF-268 > 100 µM

C/C(CC(=O)Nc1ccc(Cl)c(Cl)c1)=N/NC(=O)C[n+]1ccccc1
inactive: OVCAR-3 > 100 µM | COLO 205 31.8 µM | HCC 2998 > 100 µM | SNB-19 > 100 µM | OVCAR-4 > 100 µM | ACHN > 100 µM | NCI-H23 > 100 µM | SF-295 > 100 µM | HOP-18 > 100 µM | SF-539 > 100 µM | Malme-3M > 100 µM | HCT-116 > 100 µM | SK-MEL-28 > 100 µM | HL-60 44.4 µM | NCI-H522 68.2 µM | EKVX > 100 µM | SF-268 > 100 µM

Cc1cc(Cl)ccc1N1C(=O)C(=O)C(c2nc3ccccc3o2)C(=O)C1=O
inactive: OVCAR-3 61.1 µM | COLO 205 31.1 µM | HCC 2998 > 100 µM | SNB-19 > 100 µM | OVCAR-4 > 100 µM | ACHN > 100 µM | NCI-H23 > 100 µM | SF-295 > 100 µM | HOP-18 > 100 µM | SF-539 > 100 µM | Malme-3M > 100 µM | HCT-116 46.5 µM | SK-MEL-28 96.4 µM | HL-60 33.2 µM | NCI-H522 > 100 µM | EKVX > 100 µM | SF-268 > 100 µM

COc1ccc(/C=[N+](\[O-])[C@H](COCc2ccccc2)c2ccccc2)cc1
inactive: OVCAR-3 44.4 µM | COLO 205 84.3 µM | HCC 2998 > 100 µM | SNB-19 46.7 µM | ACHN 51.8 µM | NCI-H23 > 100 µM | SF-295 66.8 µM | HOP-18 57.4 µM | SF-539 > 100 µM | Malme-3M 42.1 µM | HCT-116 43.3 µM | SK-MEL-28 38 µM | HL-60 25 µM | NCI-H522 41.1 µM | EKVX 30.1 µM | SF-268 67.5 µM

CC(=O)OC1COC(N2C(=O)C(=O)c3cc(Br)c([N+](=O)[O-])cc32)C(OC(C)=O)C1OC(C)=O (configuration not stated)
inactive: OVCAR-3 48.2 µM | COLO 205 > 100 µM | HCC 2998 > 100 µM | SNB-19 > 100 µM | OVCAR-4 42.6 µM | ACHN > 100 µM | NCI-H23 55 µM | SF-295 > 100 µM | HOP-18 > 100 µM | SF-539 > 100 µM | Malme-3M 71 µM | HCT-116 77.3 µM | SK-MEL-28 86.5 µM | HL-60 31 µM | NCI-H522 48.8 µM | EKVX 96.4 µM | SF-268 59.2 µM

COC(=O)N/N=C(/Cc1occc(=O)c1O)C(=O)Nc1ccc([N+](=O)[O-])cc1[N+](=O)[O-]
inactive: COLO 205 > 100 µM | HCC 2998 > 100 µM | SNB-19 > 100 µM | OVCAR-4 > 100 µM | ACHN > 100 µM | NCI-H23 > 100 µM | SF-295 > 100 µM | HOP-18 > 100 µM | SF-539 > 100 µM | Malme-3M > 100 µM | HCT-116 > 100 µM | SK-MEL-28 > 100 µM | HL-60 > 100 µM | NCI-H522 > 100 µM | EKVX > 100 µM | SF-268 > 100 µM

CCN(CC)c1ccc(/N=N/c2ccc([N+](=O)[O-])cc2OC(=O)/C=C/c2ccccc2)c(OC(=O)/C=C/c2ccccc2)c1
inactive: OVCAR-3 3.18 µM | COLO 205 > 100 µM | HCC 2998 12.7 µM | SNB-19 > 24.2 µM | OVCAR-4 21 µM | ACHN 2.1 µM | NCI-H23 12.2 µM | SF-295 4.6 µM | HOP-18 1.7 µM | SF-539 2.89 µM | Malme-3M 6.44 µM | HCT-116 3.55 µM | SK-MEL-28 7.03 µM | HL-60 2.11 µM | NCI-H522 23.2 µM | EKVX 5.58 µM | SF-268 1.93 µM

COc1ccc(-c2cc(=O)c3ccccc3o2)cc1N
inactive: OVCAR-3 31.8 µM | COLO 205 33.4 µM | HCC 2998 38 µM | SNB-19 60.4 µM | OVCAR-4 40.9 µM | ACHN 37.1 µM | NCI-H23 38.5 µM | SF-295 41.7 µM | HOP-18 17.7 µM | SF-539 33.9 µM | Malme-3M > 100 µM | HCT-116 32.8 µM | SK-MEL-28 57.8 µM | HL-60 15.6 µM | NCI-H522 20.5 µM | EKVX 16.4 µM | SF-268 25.7 µM

CC(=O)OC(=O)O/C=C\CCl
inactive: OVCAR-3 > 100 µM | COLO 205 > 100 µM | HCC 2998 > 100 µM | SNB-19 > 100 µM | OVCAR-4 > 100 µM | ACHN > 100 µM | HOP-18 > 100 µM | SF-539 > 100 µM | Malme-3M > 100 µM | HCT-116 > 100 µM | SK-MEL-28 > 100 µM | HL-60 29.4 µM | NCI-H522 13.7 µM | SF-268 > 100 µM

CC(C)[Si](OCC1CC(C[C@H]2CC(C[C@H]3C[C@@H](CO[Si](C(C)C)(C(C)C)C(C)C)OC(C)(C)O3)OC(C)(C)O2)OC(C)(C)O1)(C(C)C)C(C)C (some centres not stated)
inactive: OVCAR-3 > 100 µM | COLO 205 > 100 µM | HCC 2998 > 100 µM | SNB-19 > 100 µM | OVCAR-4 > 100 µM | ACHN > 100 µM | NCI-H23 > 100 µM | SF-295 > 100 µM | HOP-18 > 100 µM | SF-539 > 100 µM | Malme-3M > 100 µM | HCT-116 > 100 µM | SK-MEL-28 > 100 µM | HL-60 > 100 µM | NCI-H522 > 100 µM | EKVX > 100 µM | SF-268 > 100 µM

CC(C)(C)C1CCP(=O)(c2ccccc2)CC1 (configuration not stated)
inactive: OVCAR-3 > 100 µM | COLO 205 > 100 µM | HCC 2998 > 100 µM | SNB-19 > 100 µM | OVCAR-4 > 100 µM | ACHN > 100 µM | NCI-H23 > 100 µM | SF-295 > 100 µM | HOP-18 > 100 µM | SF-539 > 100 µM | Malme-3M > 100 µM | HCT-116 > 100 µM | SK-MEL-28 > 100 µM | HL-60 > 100 µM | NCI-H522 > 100 µM | EKVX > 100 µM

Cc1ccc(NC(=O)c2cccc([N+](=O)[O-])c2O)c([N+](=O)[O-])c1
inactive: OVCAR-3 18.9 µM | COLO 205 19.9 µM | HCC 2998 15.9 µM | SNB-19 22.4 µM | OVCAR-4 13.5 µM | ACHN 16.4 µM | NCI-H23 13.6 µM | SF-295 15.1 µM | HOP-18 19.2 µM | SF-539 14.7 µM | Malme-3M 14.9 µM | HCT-116 9.38 µM | SK-MEL-28 16.7 µM | HL-60 25.9 µM | NCI-H522 14.1 µM | EKVX 23.2 µM | SF-268 17.9 µM
